We go through seven compounds from paper PMC3794971, “Functional and Genetic Characterization of Neuropeptide Y-Like Receptors in Aedes aegypti” (PLoS Neglected Tropical Diseases, 2013).

Test [1] deals with Ae. aegypti female mosquitoes. Nature of the test: Host-seeking behavior in uniport olfactometer after peptide injection. The format is in vivo, Aedes aegypti. The note with it: non-blood-fed females, 200 nl of 4 and 10 mM peptide injected into abdomen, tested after one hour; n = 6, ~20 females per trial. An excerpt: The uniport olfactometer was custom built by Vadim Sherman in the Rockefeller University High Energy Physics Instrument Shop. Approximately 15-25 female mosquitoes aged 5 to 14 days were placed within loaders, which are small plastic cylinders with mesh covering both openings and a sliding door on one end obtained from the World Health Organization Vector Control Research Unit ([…], Malaysia). […] were attached to one end of a 1 m long plastic tube ([…]) that led to an “attraction trap” (14 cm long, 5 cm diameter), followed by a sealed chamber into which a human volunteer inserted a hand or forearm (see image in Figure 1A for the configuration with a hand stimulus). Humidified room air was carbon-filtered (Donaldson Ultrac-A, Bloomington, MN), supplemented to a final concentration of 5% CO2 using flow-meters (Cole Parmer, catalogue #023-92-ST, Vernon Hills, IL), and passed over the hand or forearm of the volunteer into the olfactometer at 3.8 L/min. Mosquito loaders were attached to the olfactometer and given 5 minutes to acclimatize to air-flow prior to a 5 minute host-seeking test. Mosquitoes were scored as attracted if they flew upwind through the 1 m tube and into the “attraction trap” within the allotted time. Solutions of Head Peptide-I, sNPF-3 and Head Peptide-I [[…]] were dissolved in saline (0.1M NaCl, 4 mM KCl, 2 mM CaCl2) at a concentration of 4 and 10 mM for injection. ∼20 female mosquitoes aged 5 to 14 days were anesthetized on ice for 3 min, moved individually onto a chill-plate (BioQuip catalogue #1429, Rancho Dominguez, CA, USA), and injected with 200 nl of desired solution using a Drummond Nanoject II (Drummond catalogue # 3-000-204, Broomall, PA, USA) attached to 3.5'' needles (Drummond, catalogue #3-000-203-G/X) shaped on a needle puller (Sutter Instruments Co., Model P-97). Solutions were injected into the abdomen by piercing the second abdominal […] from the ovipositor. Injected mosquitoes were placed in loaders and allowed one hour to recover from injection before being tested for host-seeking behavior in the uniport olfactometer.

A further test has as its target T1, Ae. aegypti NPYLR1 (Aedes aegypti, UniProt U5N0U1).
T1 sequence (U5N0U1 1-529): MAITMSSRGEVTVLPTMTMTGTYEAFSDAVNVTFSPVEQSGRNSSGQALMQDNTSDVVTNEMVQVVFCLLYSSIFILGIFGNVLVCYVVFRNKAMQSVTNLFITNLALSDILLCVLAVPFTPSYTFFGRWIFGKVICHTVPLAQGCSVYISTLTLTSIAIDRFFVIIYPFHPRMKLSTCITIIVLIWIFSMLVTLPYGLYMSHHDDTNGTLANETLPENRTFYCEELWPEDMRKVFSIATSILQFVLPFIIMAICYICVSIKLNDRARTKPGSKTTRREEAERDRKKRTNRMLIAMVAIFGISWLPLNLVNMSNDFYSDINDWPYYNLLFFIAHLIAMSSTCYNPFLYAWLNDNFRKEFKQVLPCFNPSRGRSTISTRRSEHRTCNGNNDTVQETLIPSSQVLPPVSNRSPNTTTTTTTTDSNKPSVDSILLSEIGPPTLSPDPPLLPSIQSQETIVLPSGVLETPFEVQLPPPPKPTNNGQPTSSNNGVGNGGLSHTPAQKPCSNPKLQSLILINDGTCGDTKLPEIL
Nature of the test: HEK293T cell-based calcium imaging assay, Ae. aegypti NPYLR1. Particulars: for EC50: HEK293T cells transiently co-transfected with receptor and murine Gqα15, Fura-2 calcium imaging, eight responding cells per plate, three independent transfections, normalized to highest response. The method, then:
The variant alleles of NPYLR1 (alleles A–D) and NPYLR7 (alleles A–B) were tested in the cell-based assay as follows: NPYLR1A, NPYLR7A, and NPYLR7B were tested against the entire panel of peptides. NPYLR1B, NPYLR1C, and NPYLR1D were tested against Head Peptide-I and sNPF-3 only.

In the next test the test system is Ae. aegypti NPYLR7. Nature of the test: HEK293T cell-based calcium imaging assay, Ae. aegypti NPYLR7. Further details: species or system Aedes aegypti. Particulars: HEK293T + murine Gqα15, Fura-2 calcium imaging; NPYLR7B allele responded, NPYLR7A did not.
The subject of test [2] is Ae. aegypti female mosquitoes. The note with it: earlier report; cited from earlier work. The protocol:
At least two mechanisms for host-seeking inhibition have been proposed. First, abdominal distension triggered by blood ingestion is communicated through the ventral nerve cord to inhibit host attraction for approximately 24 hours [7](Figure 1B). Second, a humoral substance discovered in hemolymph at 48 hours after a blood meal is capable of suppressing host-seeking behavior when injected into non-blood-fed females [4](Figure 1B).

For test [3], the target named is T2, D.mel-sNPFR (Drosophila melanogaster, UniProt Q9VW75).
T2 sequence (Q9VW75 1-600): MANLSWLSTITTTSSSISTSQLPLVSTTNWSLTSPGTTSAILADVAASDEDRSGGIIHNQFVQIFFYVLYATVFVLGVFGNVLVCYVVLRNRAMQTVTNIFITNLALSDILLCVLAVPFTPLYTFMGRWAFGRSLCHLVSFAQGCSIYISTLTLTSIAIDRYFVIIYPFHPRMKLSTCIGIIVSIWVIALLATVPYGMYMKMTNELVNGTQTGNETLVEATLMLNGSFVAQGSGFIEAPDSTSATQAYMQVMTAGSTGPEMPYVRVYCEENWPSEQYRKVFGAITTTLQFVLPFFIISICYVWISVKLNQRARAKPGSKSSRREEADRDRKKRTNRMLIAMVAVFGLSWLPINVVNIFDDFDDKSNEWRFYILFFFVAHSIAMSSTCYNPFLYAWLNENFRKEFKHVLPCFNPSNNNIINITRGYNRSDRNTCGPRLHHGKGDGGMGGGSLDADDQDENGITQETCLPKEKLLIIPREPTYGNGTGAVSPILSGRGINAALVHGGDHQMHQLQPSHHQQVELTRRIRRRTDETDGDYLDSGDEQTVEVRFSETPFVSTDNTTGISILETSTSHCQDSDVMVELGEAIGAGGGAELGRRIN
The note with it: earlier reports, not this paper's assay; cited from earlier work. An excerpt:
(§1) Ae. aegypti NPYLR1 is homologous to the sNPF receptors (sNPFR) of D. melanogaster, [24] and An. gambiae. […] We have no explanation for these discrepancies, but note that since D ...

The target in another test is T3, A.gam-sNPFR (Anopheles gambiae, UniProt A0SIF2).
T3 sequence (A0SIF2 1-575): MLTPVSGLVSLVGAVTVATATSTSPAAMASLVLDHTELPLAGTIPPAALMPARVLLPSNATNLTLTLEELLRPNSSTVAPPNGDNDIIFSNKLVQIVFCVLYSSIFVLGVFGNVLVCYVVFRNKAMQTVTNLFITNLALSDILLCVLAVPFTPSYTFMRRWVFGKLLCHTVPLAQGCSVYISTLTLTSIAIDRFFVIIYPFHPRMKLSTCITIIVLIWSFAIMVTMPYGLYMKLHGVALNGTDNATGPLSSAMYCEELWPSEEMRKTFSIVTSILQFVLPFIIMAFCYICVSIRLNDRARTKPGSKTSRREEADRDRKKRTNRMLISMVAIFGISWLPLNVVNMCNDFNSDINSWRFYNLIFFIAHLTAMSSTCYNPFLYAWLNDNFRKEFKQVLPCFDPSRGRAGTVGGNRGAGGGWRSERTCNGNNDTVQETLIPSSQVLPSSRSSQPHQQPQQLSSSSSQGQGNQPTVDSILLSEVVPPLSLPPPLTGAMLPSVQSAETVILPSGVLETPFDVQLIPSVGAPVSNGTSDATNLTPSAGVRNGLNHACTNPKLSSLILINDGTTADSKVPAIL
The note with it: earlier reports, not this paper's assay; cited from earlier work.
Description: as §1

Test [4] addresses T2, D.mel-sNPFR. Nature of the test: HEK293T cell-based calcium imaging assay, D.mel-sNPFR. Particulars: HEK293T + murine Gqα15, Fura-2 calcium imaging.
Description: (§2) HEK293T cells were cultured using standard protocols in a Thermo Scientific FORMA Series II – Water Jacketed CO2 incubator (Waltham, MA, USA). Lipofectamine 2000 (Invitrogen) was used for transient transfection of 1 µg pME18S>Candidate receptor and 1 µg pME18S>murine Gqα15 [14]. Transfected cells were loaded with the calcium sensitive dye Fura-2 (Invitrogen) according to product instructions. Cells were imaged on a Nikon Eclipse TE-2000-U microscope (Melville, NY, USA) using fluorescent excitation from a Lambda DG-4 (Sutter Instruments Co., Novato, CA, USA). Bath application of ∼300 µl solutions containing peptides diluted in Ringer's solution (0.14 M NaCl, 5.6 mM KCl, 5 mM HEPES, 2 mM pyruvic acid, 2 mM CaCl2, 2 mM MgCl2, 0.15% Glucose, 1.25 mM KH2PO4, pH 7.4) were delivered using a diaphragm pump (Gilson Minipuls3, Middleton, WI, USA) with real-time recording and analysis in Metafluor software (Version 7.1.2.0; Molecular Devices, Sunnyvale, CA, USA). Data from a complete peptide dilution series were collected from eight responding cells within each plate of three independent transfections. Data were normalized by setting the highest fluorescent response within each experiment to 100%.
We also used human Neuropeptide Y (NPY) and Peptide YY (PYY) [23](Figure 2B). […]

Square brackets hold non-standard residues; d marks the D form. Peptide text beside a SMILES is read from it. Hyp = O=C(O)[C@@H]1C[C@@H](O)CN1; pGlu = O=C1CC[C@@H](C(=O)O)N1

Description for Ae. aegypti NPYLR7: as §2
NPYLR1B, NPYLR1C, and NPYLR1D were tested against Head Peptide-I and sNPF-3 only. […]

What is called EC50 is the concentration needed to bring the measured effect to its halfway point. As for `CC(C)C[C@H](NC(=O)[C@H](CCCNC(=N)N)NC(=O)[C@H](CCC(N)=O)NC(=O)[C@H](CO)NC(=O)[C@@H]1CCCN1C(=O)[C@H](C)N)C(=O)N[C@@H](CCCNC(=N)N)C(=O)N[C@@H](Cc1c[nH]c2ccccc12)C(N)=O` [sNPF-3] (H-APSQRLRW-NH2; N-terminus assumed), the “Host-seeking behavior (percent attraction to human host stimuli) after injection” value in test [1] was “inhibited host-seeking behavior”. For the same compound, the EC50 at Ae. aegypti NPYLR1 was 75 nM; in the test on Ae. aegypti NPYLR7, 6000 nM. Besides, the “Sensitivity of NPYLR1 to sNPF-3 relative to Head Peptide-I” value on Ae. aegypti NPYLR1 (cell-based assay) is on record as “ten times more sensitive”.
Consider `CC(C)C[C@H](NC(=O)[C@H](CO)NC(=O)[C@@H]1CCCN1C(=O)[C@@H]1CCCN1C(=O)[C@H](CCCNC(=N)N)NC(=O)[C@@H]1CCC(=O)N1)C(=O)N[C@@H](CCCCN)C(=O)N[C@H](C(=O)N[C@@H](CCCNC(=N)N)C(=O)N[C@@H](Cc1ccccc1)C(N)=O)[C@@H](C)O` [Head Peptide-III] ([pGlu]RPPSLKTRF-NH2), for which the EC50 on Ae. aegypti NPYLR1 came to 954 nM. In test [2], the “Host-seeking behavior activity of injected peptide” value (“Host-seeking behavior activity” for short) is “behaviorally inactive”. Moreover, the “Sensitivity of D. melanogaster sNPFR to Head Peptide-III” value on D.mel-sNPFR [3] is given as “lack sensitivity”. The “Sensitivity of An. gambiae sNPFR to Head Peptide-III” value at A.gam-sNPFR is on record as “lack sensitivity”.
As to `CC(C)C[C@H](NC(=O)[C@H](CCCNC(=N)N)NC(=O)[C@H](CC(C)C)NC(=O)[C@H](CO)NC(=O)[C@@H]1CCCN1C(=O)[C@@H](N)CO)C(=O)N[C@@H](CCCNC(=N)N)C(=O)N[C@@H](Cc1ccccc1)C(N)=O` [sNPF-1(4-11)] (H-SPSLRLRF-NH2), at Ae. aegypti NPYLR1, the EC50 was 44 nM.
The same measure, in the same setting: to `CC(C)C[C@H](NC(=O)[C@H](CCCNC(=N)N)NC(=O)[C@H](CC(C)C)NC(=O)[C@H](CCC(N)=O)NC(=O)[C@@H]1CCCN1C(=O)[C@H](C)N)C(=O)N[C@@H](CCCNC(=N)N)C(=O)N[C@@H](Cc1ccccc1)C(N)=O` [sNPF-2+4] (H-APQLRLRF-NH2) belongs 35 nM.
Take `CC(C)C[C@H](NC(=O)[C@H](CCCNC(=N)N)NC(=O)[C@H](CC(C)C)NC(=O)[C@H](CO)NC(=O)[C@@H]1CCCN1C(=O)[C@H](CO)NC(=O)[C@H](CCCNC(=N)N)NC(=O)[C@@H](NC(=O)[C@H](C)NC(=O)[C@@H](N)CCCCN)C(C)C)C(=O)N[C@@H](CCCNC(=N)N)C(=O)N[C@@H](Cc1ccccc1)C(N)=O` [sNPF-1] (H-KAVRSPSLRLRF-NH2; N-terminus assumed): the EC50 at Ae. aegypti NPYLR1 is 55 nM; in the test with Ae. aegypti NPYLR7 it was 634 nM.
Consider pERPhPSLKTRC [Head Peptide-I [Cys10]], for which the “Host-seeking behavior (percent attraction to human host stimuli) after injection” value in test [1] was “had no effect”. For the same compound, the “Calcium response of NPYLR1” value at Ae. aegypti NPYLR1 (concentrations up to 50 µM, HEK293T + murine Gqα15, Fura-2) was “no response”. In test [2], the “Host-seeking behavior activity” value is “inactive”.
In the case of `CC(C)C[C@H](NC(=O)[C@H](CO)NC(=O)[C@@H]1C[C@@H](O)CN1C(=O)[C@@H]1CCCN1C(=O)[C@H](CCCNC(=N)N)NC(=O)[C@@H]1CCC(=O)N1)C(=O)N[C@@H](CCCCN)C(=O)N[C@H](C(=O)N[C@@H](CCCNC(=N)N)C(=O)N[C@@H](Cc1ccccc1)C(N)=O)[C@@H](C)O` [Head Peptide-I] ([pGlu]RP[Hyp]SLKTRF-NH2), the “Host-seeking behavior (percent attraction to human host stimuli) after injection” value in test [1] is given as “inhibition of host-seeking behavior”. Also, the EC50 on D.mel-sNPFR [4] is 1000 nM; on Ae. aegypti NPYLR1, 823 nM. In test [2], the “Host-seeking behavior activity” value is given as “sufficient to inhibit host-seeking behavior”.
